Measurements as given in ChEMBL document CHEMBL5247646, “Discovery of 2-Aminopyrimidines as Potent Agonists for the Bitter Taste Receptor TAS2R14” (J Med Chem, 2023).

What follows are compounds tested against T1, D(2) dopamine receptor (Homo sapiens, UniProt P14416) (assay: Displacement of [3H]methylspiperone from human D2L receptor stably expressed in CHO cells by Cheng-Prusoff equation analysis). Conditions: not given.
T1 sequence (P14416 whole entry): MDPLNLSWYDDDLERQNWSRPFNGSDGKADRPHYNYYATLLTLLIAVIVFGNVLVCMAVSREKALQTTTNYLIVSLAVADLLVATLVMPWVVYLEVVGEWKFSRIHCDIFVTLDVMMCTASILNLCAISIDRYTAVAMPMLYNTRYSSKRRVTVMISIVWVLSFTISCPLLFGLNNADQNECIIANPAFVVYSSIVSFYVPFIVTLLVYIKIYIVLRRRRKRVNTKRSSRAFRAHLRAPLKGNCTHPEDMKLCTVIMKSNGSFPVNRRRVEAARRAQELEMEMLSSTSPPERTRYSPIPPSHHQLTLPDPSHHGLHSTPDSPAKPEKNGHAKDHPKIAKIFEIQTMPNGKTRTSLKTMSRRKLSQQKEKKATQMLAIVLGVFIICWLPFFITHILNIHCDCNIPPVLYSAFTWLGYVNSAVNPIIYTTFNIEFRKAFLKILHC
Assay type: cell-based
Cc1cc(C(F)(F)F)nc(Nc2ccccc2-c2nnn[nH]2)n1 gave a Ki of 16000 nM.

The compounds below were run against T1, D(2) dopamine receptor (assay: Displacement of [3H]methylspiperone from human D2S receptor stably expressed in CHO cells by Cheng-Prusoff equation analysis). Conditions: not given.
Assay type: cell-based
For Cc1cc(C(F)(F)F)nc(Nc2ccccc2-c2nnn[nH]2)n1, the Ki was 7300 nM.

Each compound was assayed against T2, Taste receptor type 2 member 14 (Homo sapiens, UniProt Q9NYV8) (assay: Partial agonist activity at human TAS2R14 transfected in HEK293T cells assessed as IP1 accumulation measured after 150 mins by IP1 accumulation assay). Conditions: not given.
T2 sequence (Q9NYV8 whole entry): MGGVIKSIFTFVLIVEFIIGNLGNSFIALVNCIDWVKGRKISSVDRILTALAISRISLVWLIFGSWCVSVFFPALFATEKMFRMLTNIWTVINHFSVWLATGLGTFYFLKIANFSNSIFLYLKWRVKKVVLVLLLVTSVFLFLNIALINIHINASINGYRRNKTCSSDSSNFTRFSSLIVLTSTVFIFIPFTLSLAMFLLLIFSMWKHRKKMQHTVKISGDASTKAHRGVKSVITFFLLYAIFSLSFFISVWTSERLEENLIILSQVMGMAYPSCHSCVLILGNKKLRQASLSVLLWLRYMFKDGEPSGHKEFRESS
Assay type: cell-based
For FC(F)(F)c1cc(Nc2ccccc2-c2nnn[nH]2)cc(C(F)(F)F)c1, the EC50 was 100 nM.

The compounds below were run against T3, Taste receptor type 2 member 14 (Homo sapiens) (UniProt Q9NYV8) (assay: Agonist activity at human TAS2R14 transfected in HEK293T cells assessed as IP1 accumulation at 10 uM measured after 150 mins by IP1 accumulation assay relative to flufenamic acid). Conditions: filed as agonist.
T3 sequence (whole entry): T2 sequence (Q9NYV8 whole entry)
Assay type: cell-based
O=C(O)c1ccccc1Nc1ccnc(C(F)(F)F)c1 gave an Emax of 52%.

What follows are compounds tested against T4, Alpha-2C adrenergic receptor (Homo sapiens, UniProt P18825) (assay: Displacement of [3H]RX821002 from human alpha2C receptor stably expressed in HEK293T cells by Cheng-Prusoff equation analysis). Conditions: not given.
T4 sequence (P18825 whole entry): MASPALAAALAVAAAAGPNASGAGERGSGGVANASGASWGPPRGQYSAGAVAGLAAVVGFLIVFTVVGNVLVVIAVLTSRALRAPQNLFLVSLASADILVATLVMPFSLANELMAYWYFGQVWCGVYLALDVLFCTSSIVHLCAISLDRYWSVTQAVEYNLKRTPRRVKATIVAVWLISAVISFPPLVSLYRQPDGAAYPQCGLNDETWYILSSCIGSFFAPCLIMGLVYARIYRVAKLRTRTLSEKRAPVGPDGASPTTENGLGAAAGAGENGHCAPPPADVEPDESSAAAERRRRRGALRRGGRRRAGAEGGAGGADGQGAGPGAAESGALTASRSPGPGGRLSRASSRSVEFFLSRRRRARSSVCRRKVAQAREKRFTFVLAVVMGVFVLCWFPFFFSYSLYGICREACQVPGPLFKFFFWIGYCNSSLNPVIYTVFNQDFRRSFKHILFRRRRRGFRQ
Assay type: cell-based
C#Cc1cc(Nc2ccccc2C(=O)O)cc(C(F)(F)F)c1 showed a Ki of 17000 nM.

These compounds were tested against D(3) dopamine receptor (Homo sapiens, UniProt P35462) (assay: Displacement of [3H]methylspiperone from human D3 receptor stably expressed in HEK293T cells by Cheng-Prusoff equation analysis). Conditions: not given.
Chain of D(3) dopamine receptor (P35462 whole entry): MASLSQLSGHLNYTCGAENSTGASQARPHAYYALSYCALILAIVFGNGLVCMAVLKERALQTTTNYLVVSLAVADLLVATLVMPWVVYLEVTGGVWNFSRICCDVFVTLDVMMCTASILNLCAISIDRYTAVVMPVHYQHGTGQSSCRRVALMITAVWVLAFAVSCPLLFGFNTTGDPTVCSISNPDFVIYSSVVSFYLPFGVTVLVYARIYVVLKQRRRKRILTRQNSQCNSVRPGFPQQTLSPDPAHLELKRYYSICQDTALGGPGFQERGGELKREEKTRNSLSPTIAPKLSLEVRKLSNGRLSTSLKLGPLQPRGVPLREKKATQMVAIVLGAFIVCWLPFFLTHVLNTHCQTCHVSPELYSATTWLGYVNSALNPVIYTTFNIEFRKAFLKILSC
Assay type: cell-based
Cc1cc(C(F)(F)F)nc(Nc2ccccc2-c2nnn[nH]2)n1 gave a Ki of 1100 nM.

The compounds below were run against T3, Taste receptor type 2 member 14 (Homo sapiens) (assay: Agonist activity at human TAS2R14 transfected in HEK293T cells assessed as IP1 accumulation at 30 uM measured after 150 mins by IP1 accumulation assay relative to flufenamic acid). Conditions: not given.
Assay type: cell-based
O=C(O)c1cccc(Nc2cccc(C(F)(F)F)c2)c1 was tested, and the Emax was 27%.

Same assay, conditions: filed as agonist
Compound O=C(O)c1ccccc1Nc1cc(C#CC2CCCC2)cc(C(F)(F)F)c1 has an Emax of 64%.
For CN(c1cccc(C(F)(F)F)c1)c1ccccc1C(=O)O, the Emax was 59%.

What follows are compounds tested against T5, Alpha-2B adrenergic receptor (Homo sapiens, UniProt P18089) (assay: Displacement of [3H]RX821002 from human alpha2B receptor stably expressed in HEK293T cells by Cheng-Prusoff equation analysis). Conditions: not given.
T5 sequence (P18089 whole entry): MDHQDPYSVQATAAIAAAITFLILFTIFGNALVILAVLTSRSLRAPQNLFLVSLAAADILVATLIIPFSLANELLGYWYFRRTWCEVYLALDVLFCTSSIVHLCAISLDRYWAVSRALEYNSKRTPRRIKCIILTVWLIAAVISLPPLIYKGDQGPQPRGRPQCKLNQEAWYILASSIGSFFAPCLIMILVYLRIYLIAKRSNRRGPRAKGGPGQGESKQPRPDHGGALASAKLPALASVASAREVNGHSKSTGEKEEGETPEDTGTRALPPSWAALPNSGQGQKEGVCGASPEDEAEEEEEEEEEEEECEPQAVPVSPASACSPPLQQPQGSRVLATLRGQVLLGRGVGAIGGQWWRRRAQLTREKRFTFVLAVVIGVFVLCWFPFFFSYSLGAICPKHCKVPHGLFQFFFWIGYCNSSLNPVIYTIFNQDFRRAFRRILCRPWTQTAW
Assay type: cell-based
With C#Cc1cc(Nc2ccccc2C(=O)O)cc(C(F)(F)F)c1 the Ki was 16000 nM.

The compounds below were run against T2, Taste receptor type 2 member 14 (assay: Agonist activity at human TAS2R14 transfected in HEK293T cells assessed as IP1 accumulation measured after 150 mins by IP1 accumulation assay). Conditions: not given.
Assay type: cell-based
Compound N#Cc1ccc(Nc2ccccc2C(=O)O)cc1C(F)(F)F has an EC50 of 170 nM.
For O=C(O)c1ccccc1Nc1nccc(C(F)(F)F)n1, the EC50 was 1600 nM.
Cc1cc(C(F)(F)F)nc(Nc2ccccc2-c2nnn[nH]2)n1 showed an EC50 of 72 nM.
O=C(O)c1ccccc1Nc1cccc(S(F)(F)(F)(F)F)c1 was tested, and the EC50 was 190 nM.
O=C(O)c1ccccc1Nc1cccc(Cl)c1 showed an EC50 of 950 nM.
With N#Cc1cc(Nc2ccccc2C(=O)O)cc(C(F)(F)F)c1 the EC50 was 180 nM.
Work on Cc1c(Nc2ccccc2C(=O)O)cccc1C(F)(F)F yielded an EC50 of 1800 nM.
Work on FC(F)(F)c1ccnc(Nc2ccccc2-c2nnn[nH]2)c1 yielded an EC50 of 360 nM.
With O=C(O)c1ccccc1Nc1cncc(C(F)(F)F)c1 the EC50 was 1200 nM.
Compound C#Cc1cc(C(F)(F)F)nc(Nc2ccccc2-c2nnn[nH]2)n1 has an EC50 of 1400 nM.
In the case of N#Cc1cc(C(F)(F)F)nc(Nc2ccccc2-c2nnn[nH]2)n1, the EC50 is reported as 300 nM.
FC(F)(F)c1ccnc(Nc2ccccc2-c2nnn[nH]2)n1 was tested, and the EC50 was 160 nM.
FC(F)(F)c1cccc(Nc2ccccc2-c2nnn[nH]2)n1 was tested, and the EC50 was 98 nM.
Work on FC(F)(F)c1cc(Cl)nc(Nc2ccccc2-c2nnn[nH]2)n1 yielded an EC50 of 540 nM.
O=C(O)c1ccccc1Nc1cc(C(F)(F)F)ccc1Br gave an EC50 of 640 nM.
C#Cc1cc(Nc2ccccc2C(=O)O)cc(C(F)(F)F)c1 was tested, and the EC50 was 150 nM.
In the case of N#Cc1ccc(C(F)(F)F)cc1Nc1ccccc1C(=O)O, the EC50 is reported as 420 nM.
For Oc1cc(C(F)(F)F)nc(Nc2ccccc2-c2nnn[nH]2)n1, the EC50 was 6800 nM.
For FC(F)(F)c1cc(I)nc(Nc2ccccc2-c2nnn[nH]2)n1, the EC50 was 750 nM.
Cc1cc(Nc2ccccc2C(=O)O)cc(C(F)(F)F)c1 was tested, and the EC50 was 190 nM.
O=C(O)c1ccccc1Nc1cccc(OC(F)F)c1 was tested, and the EC50 was 930 nM.
CC#Cc1cc(Nc2ccccc2C(=O)O)cc(C(F)(F)F)c1 gave an EC50 of 380 nM.
Compound FC(F)(F)c1cc(Nc2ccccc2-c2nnn[nH]2)ccn1 has an EC50 of 3500 nM.
O=C(O)c1ccccc1Nc1cccc(C(F)(F)F)n1 was tested, and the EC50 was 670 nM.
For O=C(O)c1ccccc1Nc1ccc(Br)c(C(F)(F)F)c1, the EC50 was 300 nM.
O=C(O)c1ccccc1Nc1cccc(C(F)(F)F)c1Br was tested, and the EC50 was 2100 nM.
Cc1ccc(Nc2ccccc2C(=O)O)cc1C(F)(F)F gave an EC50 of 330 nM.
Cc1ccc(C(F)(F)F)cc1Nc1ccccc1C(=O)O showed an EC50 of 390 nM.
FC(F)(F)c1nccc(Nc2ccccc2-c2nnn[nH]2)n1 was tested, and the EC50 was 1100 nM.
O=C(O)c1ccccc1Nc1cc(Br)cc(C(F)(F)F)c1 showed an EC50 of 230 nM.
CC(C)(C)c1cc(C(F)(F)F)nc(Nc2ccccc2-c2nnn[nH]2)n1 showed an EC50 of 640 nM.

The compounds below were run against T6, Muscarinic acetylcholine receptor M2 (Homo sapiens, UniProt P08172) (assay: Displacement of [3H]NMS from human M2 receptor stably expressed in HEK293T cells by Cheng-Prusoff equation analysis). Conditions: not given.
T6 sequence (P08172 whole entry): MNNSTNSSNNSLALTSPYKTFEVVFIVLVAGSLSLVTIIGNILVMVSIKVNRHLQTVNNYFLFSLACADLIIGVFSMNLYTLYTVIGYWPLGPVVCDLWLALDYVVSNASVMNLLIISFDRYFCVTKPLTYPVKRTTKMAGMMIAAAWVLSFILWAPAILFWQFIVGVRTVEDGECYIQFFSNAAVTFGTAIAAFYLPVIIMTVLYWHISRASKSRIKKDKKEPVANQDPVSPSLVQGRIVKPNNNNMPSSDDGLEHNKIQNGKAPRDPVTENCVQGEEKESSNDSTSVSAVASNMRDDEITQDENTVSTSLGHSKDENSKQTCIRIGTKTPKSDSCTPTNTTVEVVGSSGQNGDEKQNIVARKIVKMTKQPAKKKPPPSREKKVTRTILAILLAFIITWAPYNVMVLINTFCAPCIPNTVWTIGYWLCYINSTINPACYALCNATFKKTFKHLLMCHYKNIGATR
Assay type: cell-based
In the case of Cc1cc(C(F)(F)F)nc(Nc2ccccc2-c2nnn[nH]2)n1, the Ki is reported as 2300 nM.

Each compound was assayed against T3, Taste receptor type 2 member 14 (Homo sapiens) (assay: Partial agonist activity at human TAS2R14 transfected in HEK293T cells assessed as IP1 accumulation measured after 150 mins by IP1 accumulation assay relative to control). Conditions: filed as partial agonist.
Assay type: cell-based
For FC(F)(F)c1cc(Nc2ccccc2-c2nnn[nH]2)cc(C(F)(F)F)c1, the Emax was 80%.
